Tests used:
RIPK2 [1] = target: T1, RIPK2 (Homo sapiens, UniProt O43353); test: RIPK2 kinase inhibition assay (ADP-Glo); format: biochemical; conditions: mean ± SD from two separate experiments
T1 construct: purchased Promega
Procedure: RIPK2 kinase activity was analysed using the ADP-Glo™ Assay Kit (RIPK2 Kinase Enzyme System, Promega, USA). Reactions were performed according to the instructions. Specific signal was calculated by subtracting values in the wells without protein and inhibitor from the values in the test wells.

CK2α2(h) = target: T2, CK2α2(h) (Homo sapiens, UniProt P19784); test: Kinase selectivity panel: CK2α2; format: biochemical
T2 construct: purchased Eurofins (Millipore) KinaseProfiler Diversity Panel
Procedure: (§1) To confirm the anti-inflammatory effect was caused by RIPK2 inhibition, compound 14 was subjected to kinase selectivity evaluation (Figure 4). Kinase selectivity profile of compound 14 as shown by the diversity kinase Panel screen against 70 kinases assayed at 1 µM. Among all tested 70 kinases, only five were inhibited over 90% at 1 µM including Fyn, Lyn, BTK, Abl and RIPK2. Three kinases including KDR, CDK9 and LOK were inhibited 50–90% at 1 µM.

EphB4(h) = target: T3, EphB4(h) (Homo sapiens, UniProt P54760); test: Kinase selectivity panel: EphB4; format: biochemical
T3 construct: purchased Eurofins (Millipore) KinaseProfiler Diversity Panel
Procedure: as §1

CHK1(h) = target: T4, CHK1(h) (Homo sapiens, UniProt O14757); test: Kinase selectivity panel: CHK1; format: biochemical
T4 construct: purchased Eurofins (Millipore) KinaseProfiler Diversity Panel
T4 sequence (O14757 whole entry): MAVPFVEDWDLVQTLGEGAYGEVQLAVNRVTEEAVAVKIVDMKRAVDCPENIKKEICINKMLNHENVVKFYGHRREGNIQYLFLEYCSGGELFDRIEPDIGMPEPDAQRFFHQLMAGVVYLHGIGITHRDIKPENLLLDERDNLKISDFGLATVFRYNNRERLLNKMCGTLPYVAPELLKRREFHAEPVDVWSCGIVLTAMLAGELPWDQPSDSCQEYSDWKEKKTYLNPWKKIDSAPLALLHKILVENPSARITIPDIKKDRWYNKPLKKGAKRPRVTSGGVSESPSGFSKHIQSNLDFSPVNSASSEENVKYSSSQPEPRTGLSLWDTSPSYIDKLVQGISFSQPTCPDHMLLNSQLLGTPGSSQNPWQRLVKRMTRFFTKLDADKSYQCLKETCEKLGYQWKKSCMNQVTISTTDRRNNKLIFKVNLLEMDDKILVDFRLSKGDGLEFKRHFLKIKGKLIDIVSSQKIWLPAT
Procedure: as §1

MSK2(h) = target: T5, MSK2(h) (Homo sapiens, UniProt O75676); test: Kinase selectivity panel: MSK2; format: biochemical
T5 construct: purchased Eurofins (Millipore) KinaseProfiler Diversity Panel
Procedure: as §1

Fyn(h) = target: T6, Fyn(h) (Homo sapiens, UniProt P06241); test: Kinase selectivity panel: Fyn; format: biochemical
T6 construct: purchased Eurofins (Millipore) KinaseProfiler Diversity Panel
T6 sequence (P06241 whole entry): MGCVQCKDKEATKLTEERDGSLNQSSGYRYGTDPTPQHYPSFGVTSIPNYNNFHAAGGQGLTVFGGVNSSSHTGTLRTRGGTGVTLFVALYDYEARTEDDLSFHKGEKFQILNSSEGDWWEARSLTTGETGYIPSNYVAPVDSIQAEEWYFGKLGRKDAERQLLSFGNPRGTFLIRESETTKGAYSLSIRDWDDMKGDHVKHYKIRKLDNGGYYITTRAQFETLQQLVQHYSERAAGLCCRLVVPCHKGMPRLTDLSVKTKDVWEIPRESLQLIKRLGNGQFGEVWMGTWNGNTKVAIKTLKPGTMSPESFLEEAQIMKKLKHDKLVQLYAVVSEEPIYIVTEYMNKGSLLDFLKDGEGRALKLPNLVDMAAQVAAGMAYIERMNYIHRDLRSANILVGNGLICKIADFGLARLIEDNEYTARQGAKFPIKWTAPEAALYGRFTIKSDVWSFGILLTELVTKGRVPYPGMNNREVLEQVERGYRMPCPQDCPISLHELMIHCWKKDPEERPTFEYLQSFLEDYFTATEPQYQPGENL
Procedure: as §1

Pim-1(h) = target: T7, Pim-1(h) (Homo sapiens, UniProt P11309); test: Kinase selectivity panel: Pim-1; format: biochemical
T7 construct: purchased Eurofins (Millipore) KinaseProfiler Diversity Panel
Procedure: as §1

TBK1(h) = target: T8, TBK1(h) (Homo sapiens, UniProt Q9UHD2); test: Kinase selectivity panel: TBK1; format: biochemical
T8 construct: purchased Eurofins (Millipore) KinaseProfiler Diversity Panel
Procedure: as §1

mTOR(h) = target: T9, mTOR(h) (Homo sapiens, UniProt P42345); test: Kinase selectivity panel: mTOR; format: biochemical
T9 construct: purchased Eurofins (Millipore) KinaseProfiler Diversity Panel
Procedure: as §1

JAK2(h) = target: T10, JAK2(h) (Homo sapiens, UniProt O60674); test: Kinase selectivity panel: JAK2; format: biochemical; conditions: 1 µM
T10 construct: purchased Eurofins (Millipore) KinaseProfiler Diversity Panel
Procedure: as §1

CDK1/cyclinB(h) = target: T11, CDK1/cyclinB(h) (Homo sapiens, UniProt P06493); test: Kinase selectivity panel: CDK1/cyclinB; format: biochemical
T11 construct: purchased Eurofins (Millipore) KinaseProfiler Diversity Panel
Procedure: as §1

AO oxidase = target: T12, AO oxidase (Homo sapiens, UniProt Q06278); test: AO oxidative metabolism in human liver cytosol; format: in vitro ADME; conditions: human liver cytosol incubation; inhibitors raloxifene and menadione
T12 construct: could undergo mono oxidative metabolism in the human liver cytosol incubation system; from tissue; host or cells: human liver cytosol
Procedure: However, we have done experiment on AO oxidative metabolism of compound 14 and P5. Both compound 14 and P5 could undergo mono oxidative metabolism in the human liver cytosol incubation system.

AMPKα1(h) = target: T13, AMPKα1(h) (Homo sapiens, UniProt Q13131); test: Kinase selectivity panel: AMPKα1; format: biochemical
T13 construct: purchased Eurofins (Millipore) KinaseProfiler Diversity Panel
Procedure: as §1

RIPK2(h) = target: T14, RIPK2(h) (Homo sapiens, UniProt O43353); test: Kinase selectivity panel: RIPK2; format: biochemical
T14 construct: purchased Eurofins (Millipore) KinaseProfiler Diversity Panel
T14 sequence (O43353 whole entry): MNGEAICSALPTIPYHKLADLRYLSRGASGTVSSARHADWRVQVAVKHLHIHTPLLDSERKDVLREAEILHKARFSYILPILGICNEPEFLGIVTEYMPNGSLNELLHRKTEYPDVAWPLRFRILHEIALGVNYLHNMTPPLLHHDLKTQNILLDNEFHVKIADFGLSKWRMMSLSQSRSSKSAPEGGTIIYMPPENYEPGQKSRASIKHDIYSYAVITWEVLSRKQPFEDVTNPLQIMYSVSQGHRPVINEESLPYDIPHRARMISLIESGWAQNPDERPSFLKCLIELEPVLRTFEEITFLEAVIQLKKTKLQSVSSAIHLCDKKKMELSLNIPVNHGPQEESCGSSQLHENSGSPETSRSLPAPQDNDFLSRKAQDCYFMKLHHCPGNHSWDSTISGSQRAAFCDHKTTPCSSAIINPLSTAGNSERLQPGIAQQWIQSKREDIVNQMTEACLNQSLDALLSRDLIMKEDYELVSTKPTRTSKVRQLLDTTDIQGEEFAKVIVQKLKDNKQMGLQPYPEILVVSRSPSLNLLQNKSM
Procedure: as §1

[2] = target: T15, PI3 Kinase (p110d/p85a)(h) (Homo sapiens, UniProt O00329); test: Kinase selectivity panel: PI3 Kinase (p110d/p85a); format: biochemical; conditions: 1 µM
T15 construct: purchased Eurofins (Millipore) KinaseProfiler Diversity Panel
Procedure: as §1

CaMKI(h) = target: T16, CaMKI(h) (Homo sapiens, UniProt Q14012); test: Kinase selectivity panel: CaMKI; format: biochemical; conditions: 1 µM
T16 construct: purchased Eurofins (Millipore) KinaseProfiler Diversity Panel
Procedure: as §1

PDGFRβ(h) = target: T17, PDGFRβ(h) (Homo sapiens, UniProt P09619); test: Kinase selectivity panel: PDGFRβ; format: biochemical
T17 construct: purchased Eurofins (Millipore) KinaseProfiler Diversity Panel
Procedure: as §1

IRAK4(h) = target: T18, IRAK4(h) (Homo sapiens, UniProt Q9NWZ3); test: Kinase selectivity panel: IRAK4; format: biochemical
T18 construct: purchased Eurofins (Millipore) KinaseProfiler Diversity Panel
T18 sequence (Q9NWZ3 whole entry): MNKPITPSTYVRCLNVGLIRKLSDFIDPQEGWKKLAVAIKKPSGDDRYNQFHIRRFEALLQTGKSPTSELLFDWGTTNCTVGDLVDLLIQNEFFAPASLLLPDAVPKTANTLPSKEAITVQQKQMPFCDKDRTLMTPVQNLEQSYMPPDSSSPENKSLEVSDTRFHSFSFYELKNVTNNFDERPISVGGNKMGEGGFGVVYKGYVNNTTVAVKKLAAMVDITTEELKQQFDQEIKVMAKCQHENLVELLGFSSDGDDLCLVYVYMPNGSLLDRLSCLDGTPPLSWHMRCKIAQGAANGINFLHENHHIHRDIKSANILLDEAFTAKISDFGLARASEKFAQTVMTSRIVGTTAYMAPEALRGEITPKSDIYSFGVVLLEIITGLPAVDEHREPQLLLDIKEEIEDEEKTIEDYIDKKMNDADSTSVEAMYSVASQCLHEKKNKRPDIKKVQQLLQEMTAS
Procedure: as §1

eEF-2K(h) = target: T19, eEF-2K(h) (Homo sapiens, UniProt O00418); test: Kinase selectivity panel: eEF-2K; format: biochemical
T19 construct: purchased Eurofins (Millipore) KinaseProfiler Diversity Panel
Procedure: as §1

CDK9/cyclin T1(h) = target: T20, CDK9/cyclin T1(h) (Homo sapiens, UniProt P50750); test: Kinase selectivity panel: CDK9/cyclin T1; format: biochemical
T20 construct: purchased Eurofins (Millipore) KinaseProfiler Diversity Panel
T20 sequence (P50750 whole entry): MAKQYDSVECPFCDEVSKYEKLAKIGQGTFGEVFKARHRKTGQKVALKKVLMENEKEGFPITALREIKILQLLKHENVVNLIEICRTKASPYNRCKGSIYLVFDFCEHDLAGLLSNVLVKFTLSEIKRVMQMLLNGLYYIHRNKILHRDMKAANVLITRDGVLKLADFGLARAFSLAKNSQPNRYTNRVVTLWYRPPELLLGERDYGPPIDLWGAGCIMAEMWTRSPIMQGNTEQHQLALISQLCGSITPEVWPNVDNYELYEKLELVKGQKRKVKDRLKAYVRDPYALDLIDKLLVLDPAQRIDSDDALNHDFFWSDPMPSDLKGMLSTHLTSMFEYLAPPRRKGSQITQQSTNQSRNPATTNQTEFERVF
T20 sequence (O60563 whole entry partner): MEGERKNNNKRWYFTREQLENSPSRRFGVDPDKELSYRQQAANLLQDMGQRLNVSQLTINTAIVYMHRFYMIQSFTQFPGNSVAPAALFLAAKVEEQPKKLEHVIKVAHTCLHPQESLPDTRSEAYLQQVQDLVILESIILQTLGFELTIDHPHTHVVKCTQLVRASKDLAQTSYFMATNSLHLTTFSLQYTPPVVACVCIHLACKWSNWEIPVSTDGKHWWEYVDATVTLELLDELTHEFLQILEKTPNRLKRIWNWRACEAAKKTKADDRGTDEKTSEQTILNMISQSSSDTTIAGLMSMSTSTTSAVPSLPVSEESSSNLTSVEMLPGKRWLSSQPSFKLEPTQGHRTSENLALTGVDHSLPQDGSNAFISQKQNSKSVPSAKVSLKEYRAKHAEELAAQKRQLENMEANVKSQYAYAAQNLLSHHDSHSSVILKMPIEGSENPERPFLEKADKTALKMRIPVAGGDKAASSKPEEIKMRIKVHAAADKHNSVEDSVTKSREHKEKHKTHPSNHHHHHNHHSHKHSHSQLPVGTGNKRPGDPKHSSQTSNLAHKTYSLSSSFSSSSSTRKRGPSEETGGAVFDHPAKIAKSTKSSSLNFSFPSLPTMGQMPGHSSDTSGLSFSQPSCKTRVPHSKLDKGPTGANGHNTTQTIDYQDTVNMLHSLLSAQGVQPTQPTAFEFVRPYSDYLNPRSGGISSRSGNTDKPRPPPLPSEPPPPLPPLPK
Procedure: as §1

Syk(h) = target: T21, Syk(h) (Homo sapiens, UniProt P43405); test: Kinase selectivity panel: Syk; format: biochemical
T21 construct: purchased Eurofins (Millipore) KinaseProfiler Diversity Panel
Procedure: as §1

RIPK2 [3] = target: T1, RIPK2; test: Lipophilic ligand efficiency (LipE); conditions: LipE = pIC50 − ClogP
KDR(h) = target: T22, KDR(h) (Homo sapiens, UniProt P35968); test: Kinase selectivity panel: KDR; format: biochemical; set-up: KDR(h), 14 @ 1 µM: unit not given here
T22 construct: purchased Eurofins (Millipore) KinaseProfiler Diversity Panel
T22 sequence (P35968 20-1356): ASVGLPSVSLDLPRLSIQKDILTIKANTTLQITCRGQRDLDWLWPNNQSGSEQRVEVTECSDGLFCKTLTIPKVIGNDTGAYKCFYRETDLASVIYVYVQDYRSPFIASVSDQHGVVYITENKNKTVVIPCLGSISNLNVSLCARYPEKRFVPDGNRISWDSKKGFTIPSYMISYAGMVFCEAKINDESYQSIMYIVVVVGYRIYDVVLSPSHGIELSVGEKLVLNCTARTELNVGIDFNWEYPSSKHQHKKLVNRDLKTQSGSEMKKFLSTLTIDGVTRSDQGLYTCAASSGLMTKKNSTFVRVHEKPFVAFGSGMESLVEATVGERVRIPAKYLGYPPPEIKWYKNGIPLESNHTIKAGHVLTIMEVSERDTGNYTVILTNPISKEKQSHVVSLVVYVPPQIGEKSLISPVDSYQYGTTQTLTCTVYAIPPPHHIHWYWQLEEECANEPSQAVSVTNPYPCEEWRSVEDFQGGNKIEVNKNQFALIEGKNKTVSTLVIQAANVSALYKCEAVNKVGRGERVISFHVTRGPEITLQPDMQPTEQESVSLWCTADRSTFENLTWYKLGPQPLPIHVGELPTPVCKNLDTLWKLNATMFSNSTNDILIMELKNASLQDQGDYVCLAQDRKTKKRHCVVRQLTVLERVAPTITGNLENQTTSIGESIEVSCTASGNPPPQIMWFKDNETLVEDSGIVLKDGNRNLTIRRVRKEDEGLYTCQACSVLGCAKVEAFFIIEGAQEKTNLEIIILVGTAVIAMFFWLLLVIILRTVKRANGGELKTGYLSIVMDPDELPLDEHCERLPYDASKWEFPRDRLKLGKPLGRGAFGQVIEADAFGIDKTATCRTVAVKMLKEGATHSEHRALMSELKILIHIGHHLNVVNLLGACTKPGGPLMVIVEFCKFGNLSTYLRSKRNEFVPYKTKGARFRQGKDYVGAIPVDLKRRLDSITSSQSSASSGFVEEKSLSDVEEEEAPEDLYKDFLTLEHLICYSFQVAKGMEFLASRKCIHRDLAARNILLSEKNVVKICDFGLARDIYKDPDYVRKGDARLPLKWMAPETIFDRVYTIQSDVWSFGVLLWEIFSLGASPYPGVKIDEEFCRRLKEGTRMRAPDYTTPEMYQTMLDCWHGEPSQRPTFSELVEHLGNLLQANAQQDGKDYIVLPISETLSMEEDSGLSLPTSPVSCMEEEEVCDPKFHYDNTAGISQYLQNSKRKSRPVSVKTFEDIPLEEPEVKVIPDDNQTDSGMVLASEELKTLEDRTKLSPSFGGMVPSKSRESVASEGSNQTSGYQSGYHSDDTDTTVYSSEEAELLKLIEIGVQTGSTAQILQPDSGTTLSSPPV
Procedure: as §1

PKCθ(h) = target: T23, PKCθ(h) (Homo sapiens, UniProt Q04759); test: Kinase selectivity panel: PKCθ; format: biochemical
T23 construct: purchased Eurofins (Millipore) KinaseProfiler Diversity Panel
Procedure: as §1

[4] = target: T24, PI3 Kinase (p110a/p85a)(h) (Homo sapiens, UniProt P42336); test: Kinase selectivity panel: PI3 Kinase (p110a/p85a); format: biochemical; conditions: 1 µM
T24 construct: purchased Eurofins (Millipore) KinaseProfiler Diversity Panel
Procedure: as §1

TYK2(h) = target: T25, TYK2(h) (Homo sapiens, UniProt P29597); test: Kinase selectivity panel: TYK2; format: biochemical; conditions: 1 µM
T25 construct: purchased Eurofins (Millipore) KinaseProfiler Diversity Panel
Procedure: as §1

DRAK1(h) = target: T26, DRAK1(h) (Homo sapiens, UniProt Q9UEE5); test: Kinase selectivity panel: DRAK1; format: biochemical; conditions: 1 µM
T26 construct: purchased Eurofins (Millipore) KinaseProfiler Diversity Panel
Procedure: as §1

CDK2/cyclinA(h) = target: T27, CDK2/cyclinA(h) (Homo sapiens, UniProt P24941); test: Kinase selectivity panel: CDK2/cyclinA; format: biochemical
T27 construct: purchased Eurofins (Millipore) KinaseProfiler Diversity Panel
Procedure: as §1

GSK3β(h) = target: T28, GSK3β(h) (Homo sapiens, UniProt P49841); test: Kinase selectivity panel: GSK3β; format: biochemical; conditions: 1 µM
T28 construct: purchased Eurofins (Millipore) KinaseProfiler Diversity Panel
Procedure: as §1

IKKα(h) = target: T29, IKKα(h) (Homo sapiens, UniProt O15111); test: Kinase selectivity panel: IKKα; format: biochemical
T29 construct: purchased Eurofins (Millipore) KinaseProfiler Diversity Panel
Procedure: as §1

MAPKAP-K2(h) = target: T30, MAPKAP-K2(h) (Homo sapiens, UniProt P49137); test: Kinase selectivity panel: MAPKAP-K2; format: biochemical; conditions: 1 µM
T30 construct: purchased Eurofins (Millipore) KinaseProfiler Diversity Panel
T30 sequence (P49137 whole entry): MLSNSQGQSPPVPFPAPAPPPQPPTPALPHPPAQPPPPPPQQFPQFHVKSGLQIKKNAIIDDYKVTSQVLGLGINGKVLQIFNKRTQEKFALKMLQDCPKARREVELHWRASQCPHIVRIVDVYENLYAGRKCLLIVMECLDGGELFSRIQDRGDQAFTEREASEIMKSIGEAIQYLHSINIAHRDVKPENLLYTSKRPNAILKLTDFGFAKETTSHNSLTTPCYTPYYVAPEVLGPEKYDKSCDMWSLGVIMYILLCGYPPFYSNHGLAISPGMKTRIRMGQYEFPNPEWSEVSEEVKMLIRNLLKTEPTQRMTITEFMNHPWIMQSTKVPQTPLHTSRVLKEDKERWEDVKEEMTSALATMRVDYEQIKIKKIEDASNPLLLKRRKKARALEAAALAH
Procedure: as §1

EGFR(h) = target: T31, EGFR(h) (Homo sapiens, UniProt P00533); test: Kinase selectivity panel: EGFR; format: biochemical; set-up: unit not given here
T31 construct: purchased Eurofins (Millipore) KinaseProfiler Diversity Panel
Procedure: as §1

PKG1α(h) = target: T32, PKG1α(h) (Homo sapiens, UniProt Q13976); test: Kinase selectivity panel: PKG1α; format: biochemical
T32 construct: purchased Eurofins (Millipore) KinaseProfiler Diversity Panel
Procedure: as §1

IRAK1(h) = target: T33, IRAK1(h) (Homo sapiens, UniProt P51617); test: Kinase selectivity panel: IRAK1; format: biochemical
T33 construct: purchased Eurofins (Millipore) KinaseProfiler Diversity Panel
Procedure: as §1

CDK6/cyclinD3(h) = target: T34, CDK6/cyclinD3(h) (Homo sapiens, UniProt Q00534); test: Kinase selectivity panel: CDK6/cyclinD3; format: biochemical
T34 construct: purchased Eurofins (Millipore) KinaseProfiler Diversity Panel
Procedure: as §1

MEK1(h) = target: T35, MEK1(h) (Homo sapiens, UniProt Q02750); test: Kinase selectivity panel: MEK1; format: biochemical; conditions: 1 µM
T35 construct: purchased Eurofins (Millipore) KinaseProfiler Diversity Panel
Procedure: as §1

T1 sequence (O43353 whole entry): as the sequence (O43353 whole entry) above

SMILES: c1cc(-c2ccc3nccc(Nc4ccc5scnc5c4)c3c2)ccn1 [Compound 14, N-(6-(pyridin-4-yl)quinolin-4-yl)benzo[d]thiazol-5-amine]
- IC50 (RIPK2 [1]): 5.1 ± 1.6 nM
- Remaining CK2α2 kinase activity (%) with compound 14 at 1 µM (CK2α2(h)): 104
- EphB4 remaining activity (%) with compound 14 at 1 µM (EphB4(h)): 96
- CHK1 remaining activity (% of control) at 1 µM (CHK1(h)): 100
- MSK2 remaining kinase activity (% of control) with compound 14 at 1 µM (MSK2(h)): 107
- Fyn remaining activity (%) (Fyn(h); 1 µM): 0
- inhibition at 1 µM (Fyn(h); at 1 µM): > 90%
- remaining kinase activity (% of control) with compound 14 at 1 µM (Pim-1(h)): 78
- TBK1 remaining activity (%) with compound 14 at 1 µM (TBK1(h)): 97
- % remaining mTOR activity with compound 14 at 1 µM (mTOR(h)): 106
- remaining kinase activity (%) (JAK2(h)): 93
- CDK1/cyclinB remaining activity (% of control) with compound 14 at 1 µM (CDK1/cyclinB(h)): 90
- AO oxidase substrate (AO oxidase): metabolic substrates of AO oxidase
- Remaining kinase activity (%) with compound 14 at 1 µM (AMPKα1(h)): 103
- RIPK2 remaining activity (% of control) (RIPK2(h); 1 µM): 3
- inhibition at 1 µM (RIPK2(h); at 1 µM): > 90%
- Remaining kinase activity (% of control) [2]: 54
- percent kinase activity remaining (CaMKI(h)): 97
- Remaining kinase activity at 1 µM (% of control) (PDGFRβ(h)): 64
- Percent remaining IRAK4 activity with compound 14 at 1 µM (IRAK4(h)): 107
- remaining kinase activity (% of control) with compound 14 at 1 µM (eEF-2K(h)): 102
- remaining kinase activity (%) (CDK9/cyclin T1(h); 1 µM): 41
- inhibition at 1 µM (CDK9/cyclin T1(h); at 1 µM): 50 to 90%
- % remaining kinase activity with compound 14 at 1 µM (Syk(h)): 94
- LipE (RIPK2 [3]): 4.40
- KDR(h), 14 @ 1 µM (KDR(h); 1 µM): 11
- inhibition at 1 µM (KDR(h); at 1 µM): 50 to 90%
- remaining kinase activity (% of control) at 1 µM (PKCθ(h)): 74
- percent remaining kinase activity [4]: 81
- kinase activity remaining (% of control) (TYK2(h)): 108
- Remaining DRAK1 activity (% of control) (DRAK1(h)): 110
- CDK2/cyclinA remaining activity (%) with compound 14 at 1 µM (CDK2/cyclinA(h)): 78
- remaining kinase activity (%) (GSK3β(h)): 75
- Remaining IKKα activity at 1 µM (% of control) (IKKα(h)): 104
- percent remaining MAPKAP-K2 activity (MAPKAP-K2(h)): 95
- EGFR(h), 14 @ 1 µM (EGFR(h)): 104
- Remaining PKG1α activity (% of control) with compound 14 at 1 µM (PKG1α(h)): 64
- IRAK1 remaining activity (% of control) with compound 14 at 1 µM (IRAK1(h)): 91
- Remaining kinase activity (%) at 1 µM (CDK6/cyclinD3(h)): 100
- % remaining MEK1 activity (MEK1(h)): 105
